Measurements reported in patent US10570117B2, “Phenylimidazole compound” (Otsuka Pharmaceutical Factory, Inc., priority 2015, dated 2020).
≈ marks a conversion by molar mass, not a printed value. Like-named read-outs stand apart in the source and are kept apart here.

How the values were obtained:
[1] = test system: lipoprotein lipase (LPL) gene; experiment: LPL mRNA elevating action (RT-PCR quantification of LPL mRNA in C2Cl2 cells); format: cell-based, mouse; conditions: Mus musculus, 24 h, compound 10 μM, ratio relative to the amount of LPL mRNA in cells with DMSO only, read-out: Rate of increase in LPL mRNA
Outline: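 Mouse striated-muscle C2Cl2 cells in DMEM with 10% FBS exposed to compounds at 10 μM for 24 h. LPL mRNA quantified by RT-PCR and real-time PCR (20 cycles), expressed as ratio to DMSO-only cells set at 1.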

[2] = Solubility in gastric juice or intestinal juice model fluid (precipitation method using DMSO); format: physicochemical; conditions: room temperature
Outline: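 Compound in DMSO added to JP disintegration test fluid 1 (pH 1.2) or fluid 2 (pH 6.8) and shaken 24 h at room temperature. After filtration, dissolved concentration (μg/mL) determined by UV absorbance against compound calibration curves.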

[3] = pH 1.2, simulated gastric fluid, kinetic from dmso stock, 1st fluid for Disintegration Test of Japanese Pharmacopoeia (pH: 1.2), read-out: Solubility (μg/mL) 1st fluid
[4] = pH 6.8, kinetic from dmso stock, 2nd fluid for Disintegration Test of Japanese Pharmacopoeia (pH: 6.8), read-out: Solubility (μg/mL) 2nd fluid

Row | SMILES | melting point | solubility at 24 h [2, 3] | solubility at 24 h [2, 4] | fold induction at 10 µM [1]
1 | COc1cc(OCc2noc(C3CC3)n2)ccc1-c1cnc(-c2ccc(F)nc2)[nH]1 [Example 334] | 153 to 158 °C | 76.6 µg/mL (≈ 188 µM) | 7.8 µg/mL (≈ 19.1 µM) | 1.78
2 | COc1cc(OCc2ncc(C(F)(F)F)cc2F)ccc1-c1[nH]c(CCC(F)(F)F)nc1Cl [Example 394] | 154 to 159 °C | 96.3 µg/mL (≈ 193 µM) | < 0.4 µg/mL | 2.39
3 | COc1cc(-c2[nH]c(C3CCC3)nc2Cl)ccc1OCc1ccc(C(F)(F)F)cn1 [Example 193] | 158 to 170 °C | 86.4 µg/mL (≈ 197 µM) | 0.8 µg/mL (≈ 1.83 µM) | 4.32
4 | COc1cc(OCc2ccc(C(F)(F)F)nc2)ccc1-c1[nH]c(C2CCC(F)(F)CC2)nc1Cl [Example 204] | 122 to 125 °C | > 100 µg/mL | < 8.9 µg/mL | 5.07
5 | COc1cc(O)ccc1-c1[nH]c(-c2ccc(F)nc2)nc1Cl [Example 313] | 209 to 214 °C (dec.) | 62.3 µg/mL (≈ 195 µM) | 5 µg/mL (≈ 15.6 µM) | 1.33
6 | COc1cc(-c2[nH]c(-c3ccc(F)nc3)nc2Cl)ccc1OCc1ncc(C(F)(F)F)cc1F [Example 325] | 165 to 170 °C | 4.7 µg/mL (≈ 9.46 µM) | 1.3 µg/mL (≈ 2.62 µM) | 2.44
7 | COc1cc(-c2[nH]c(C3CCC(F)(F)CC3)nc2Cl)ccc1OCc1ccc(C(F)(F)F)cn1 [Example 209] | 175 to 177 °C | 99.4 µg/mL (≈ 198 µM) | < 0.4 µg/mL | 5.34
8 | COc1cc(OCc2ccc(C(F)(F)F)nc2)ccc1-c1c(C)nc(-c2ccc(Cl)nc2)n1C [Example 153, 2-chloro-5-[5-[2-methoxy-4-((6-(trifluoromethyl)pyridin-3-yl)methoxy)phenyl]-1,4-dimethyl-1H-imidazol-2-yl]pyridine] | 148 to 150 °C | > 98 µg/mL | 1.7 µg/mL (≈ 3.48 µM) | 4.61
9 | COc1cc(OCc2ccc(C(F)(F)F)nc2)ccc1-c1c(C)nc(-c2ccc(Cl)nc2)n1CC1CC1 [Example 155] | 164 to 166 °C | > 106 µg/mL | 3 µg/mL (≈ 5.67 µM) | 3.06
10 | COc1cc(OCc2ccc(C(F)(F)F)cn2)ccc1-c1[nH]c(C2CC(F)(F)C2)nc1Cl [Example 188] | 191 to 193 °C | 86.4 µg/mL (≈ 182 µM) | 1.9 µg/mL (≈ 4.01 µM) | 2.95
11 | COc1cc(OCc2ccc(C(F)(F)F)cn2)ccc1-c1nc(-c2ccc(F)cn2)[nH]c1C [Example 25] | 180 to 182 °C | 83.1 µg/mL (≈ 181 µM) | 1 µg/mL (≈ 2.18 µM) | 2.68

Continued, in another order:

Row | melting point | solubility at 24 h [2, 3] | solubility at 24 h [2, 4] | SMILES | fold induction at 10 µM [1]
12 | 169 to 171 °C | 53.6 µg/mL (≈ 117 µM) | 1.8 µg/mL (≈ 3.93 µM) | COc1cc(OCc2ccc(C(F)(F)F)nc2)ccc1-c1nc(-c2ccc(F)nc2)[nH]c1C [Example 24] | 2.94
13 | 132 to 162 °C | 11.4 µg/mL (≈ 21.8 µM) | < 0.4 µg/mL | COc1cc(OCc2cnccc2C(F)(F)F)ccc1-c1[nH]c(-c2ccc(F)nc2)nc1Br [Example 256] | 3.12
14 | 169 to 171 °C | 77.7 µg/mL (≈ 200 µM) | 3.3 µg/mL (≈ 8.47 µM) | COc1cc(OCc2ccccc2)ccc1-c1[nH]c(-c2ccc(F)nc2)nc1C [Example 332] | 1.91
15 | 199 to 201 °C | 7.5 µg/mL (≈ 18.4 µM) | 1.6 µg/mL (≈ 3.92 µM) | COc1cc(OCc2cnc(C)cn2)ccc1-c1c[nH]c(-c2ccc(Cl)nc2)n1 [Example 22] | 2.22
16 | 213 to 215 °C (dec.) | 8.8 µg/mL (≈ 17.9 µM) | < 1.8 µg/mL | COc1cc(OCc2ccc(C(F)(F)F)nc2)c(C)cc1-c1[nH]c(-c2ccc(F)nc2)nc1Cl [Example 202] | 3.15
17 | 188 to 191 °C (dec.) | 82.7 µg/mL (≈ 186 µM) | 0.9 µg/mL (≈ 2.03 µM) | COc1cc(-c2[nH]c(C(C)C)nc2Cl)ccc1OCc1ncc(C(F)(F)F)cc1F [Example 386] | 2.77
18 | > 270 °C | 50 µg/mL (≈ 196 µM) | 39.2 µg/mL (≈ 154 µM) | Oc1ccc(-c2cnc(-c3ccc(F)nc3)[nH]2)cc1 [Example 343] | 1.42
19 | 203 to 205 °C | 84.9 µg/mL (≈ 193 µM) | 0.4 µg/mL (≈ 0.908 µM) | COc1cc(OCc2ccc(C(F)(F)F)cn2)ccc1-c1c[nH]c(-c2ccc(C)nc2)n1 [Example 80] | 2.01
